Reference: EP4810038A1, “METHOD FOR TREATING ALK-POSITIVE OR ROS1-POSITIVE NON-SMALL CELL LUNG CANCER” (Shenzhen TargetRx Co., Ltd., priority 2023, dated 2025)

Assays:
[1] = test system: Ba/F3 (SLC34A2-ROS1 G2032R) cell line; assay: Anti-tumor effect in subcutaneous transplanted Ba/F3 (SLC34A2-ROS1 G2032R) model; format: in vivo, NOD-SCID mice; conditions: 100 mg/kg p.o. once daily; 21st day after administration
Description: Housing environment: SPF grade.
Environmental conditions of the housing room of the laboratory animals: All the laboratory animals were housed in individually ventilated cages with constant temperature and constant humidity. […] The animals were continuously provided with cobalt-60 irradiated complete pelleted mouse feed with unlimited free access. The animals drank tap water (used after being autoclaved), which was provided continuously from water bottles, allowing for free access. The cages for raising the mice were polysulfone mice cages, which were autoclaved before use, and measured 325 mm × 210 mm × 180 mm. The bedding was autoclaved corn cobs. Each cage contained 5 animals. The cage cards were marked with the IACUC approval number, experiment number, start time of the experiment, project leader, experimenters, source of the animals, group, and animal number. The laboratory animals were marked with ear tags or ear labels.
The Ba/F3 (SLC34A2-ROS1 G2032R) cells in the exponential growth phase were collected, resuspended in PBS to a suitable concentration, and then subcutaneously inoculated into nude mice for tumor formation.
Assay method: Female NOD/SCID mice were subcutaneously inoculated with 2×10^6 Ba/F3 (SLC34A2-ROS1 G2032R) cells on the right side to establish a subcutaneous tumor transplantation model. […] The mice were administered orally via gavage once daily. The efficacy was evaluated based on the relative tumor growth inhibition rate (TGI), and the safety was evaluated based on the changes in the body weight and mortality of the animals.
All the procedures, including drug administration, tumor measurement, weight measurement, etc., were performed in a biosafety cabinet or on a clean bench.
The relative tumor growth rate (T/C%) was the percentage value of the relative tumor volume between a treatment group and the control group at a certain time point, or the percentage value of the tumor weight between a treatment group and the control group. The calculation formula was: T/C% = TRTV / CRTV × 100% (TRTV: the average RTV of the treatment group; CRTV: the average RTV of the solvent control group; RTV = Vt / V0, wherein V0 is the tumor volume of the animal at the time of grouping, and Vt is the tumor volume of the animal after treatment); or T/C% = TTW / CTW × 100% (TTW: the average tumor weight at the end of the assay in the treatment group; CTW: the average tumor weight at the end of the assay in the solvent control group).
Statistical analysis: To compare the tumor volume on a given day across the different treatment groups, we first used the Bartlett's test to verify the assumption of homogeneity of variance among all the groups. When the p-value of the Bartlett's test was not less than 0.05, one-way ANOVA was used to test whether the means of all the groups were equal. If the p-value of the one-way ANOVA was less than 0.05, we would use the Tukey's HSD test for the pairwise comparisons between all the groups, or use the Dunnett's test for a pairwise comparison between each treatment group and the control group. When the p-value of the Bartlett's test was less than 0.05, the Kruskal-Wallis test was used to test whether the medians of all the groups were equal. […]

[2] = 100 mg of lorlatinib, GM (%CV), cited from earlier work

SMILES	average tumor volume [1]	AR ([2]; Multiple administrations)	AUC0-τ ([2]; Multiple administrations)	Cmax, SS ([2]; Multiple administrations)	AUC(0-inf) ([2]; Single administration)	Cmax ([2]; Single administration)	T1/2 ([2]; Single administration)
C[C@@H](Oc1cc(-c2cnn(C3CCNCC3)c2)cnc1N)c1c(Cl)ccc(F)c1Cl [crizotinib, reference compound]	1651.66 mm^3						
C[C@H]1Oc2cc(cnc2N)-c2c(nn(C)c2C#N)CN(C)C(=O)c2ccc(F)cc21 [lorlatinib]		0.718(55)[11]	5946(46)[11] h*ng/ mL	644.8(32)[11] ng/mL	9590(11)[7] h*ng/ mL	907.2(24) [7] ng/mL	20.0(22)[7] hour
